According to PubChem BioAssay AID248 (DTP/NCI, 2004):
Several values for one entry are separate records, joined by “and”; a condition that tells them apart may be missing. Equal values may be shown once. Toxic doses and inconclusive results are not listed. Cut-off read from the data, not from the text of the source: active = T/C of 150% or more; inactive = T/C below 125%.

Tested on: L1210 leukemia ip in BDF1 mice, survival T/C
Experiment: NCI In Vivo Anticancer Drug Screen. Data for tumor model L1210 Leukemia (intraperitoneal) in B6D2F1 (BDF1) mice
Details: endpoint: mean survival time, higher = longer survival
Procedure, shortened: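 Antitumor effect is assessed in tumor-bearing animals. Survival in the compound arm is compared with a vehicle-dosed control arm and expressed as their quotient.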

[1] = dose: 100.0 mg/kg/injection, schedule: Q04DX003 (ip), vehicle: saline with Tween-80
[2] = dose: 200.0 mg/kg/injection, schedule: Q04DX003 (ip), vehicle: saline with Tween-80
[3] = dose: 25.0 mg/kg/injection, schedule: Q01DX009 (ip), vehicle: saline
[4] = dose: 50.0 mg/kg/injection, schedule: Q01DX009 (ip), vehicle: saline
[5] = dose: 50.0 mg/kg/injection, schedule: Q04DX003 (ip), vehicle: saline
[6] = dose: 100.0 mg/kg/injection, schedule: Q01DX009 (ip), vehicle: saline
[7] = dose: 100.0 mg/kg/injection, schedule: Q01DX009 (ip), vehicle: saline with Tween-80
[8] = dose: 200.0 mg/kg/injection, schedule: Q01DX009 (ip), vehicle: saline with Tween-80
[9] = dose: 25.0 mg/kg/injection, schedule: Q01DX009 (ip), vehicle: Klucel (hydroxypropylcellulose) (HPC)
[10] = dose: 50.0 mg/kg/injection, schedule: Q01DX009 (ip), vehicle: Klucel (hydroxypropylcellulose) (HPC)
[11] = dose: 100.0 mg/kg/injection, schedule: Q04DX003 (ip), vehicle: Klucel (hydroxypropylcellulose) (HPC)
[12] = dose: 100.0 mg/kg/injection, schedule: Q01DX001 (ip), vehicle: saline
[13] = dose: 400.0 mg/kg/injection, schedule: Q04DX003 (ip), vehicle: saline with Tween-80

Measured: T/C

c1ccc2c(c1)Cc1nc3ccccc3nc1-2
inactive: dose: 25.0 mg/kg/injection, schedule: Q01DX009 (ip), vehicle: water 93 % of control | dose: 50.0 mg/kg/injection, schedule: Q01DX009 (ip), vehicle: water 91 % of control | dose: 100.0 mg/kg/injection, schedule: Q01DX009 (ip), vehicle: water 101 % of control | dose: 200.0 mg/kg/injection, schedule: Q01DX009 (ip), vehicle: water 93 % of control | dose: 400.0 mg/kg/injection, schedule: Q01DX009 (ip), vehicle: water 96 % of control

N#CCCOc1ccc(Cl)cc1
inactive: [1] 96 % of control | [2] 99 % of control

N#CCCn1c(=S)sc2ccccc21
inactive: dose: 50.0 mg/kg/injection, schedule: Q04DX003 (ip), vehicle: saline with Tween-80 103 % of control | [1] 100 % of control | [2] 106 % of control

CN(C)C1=NC(=O)C(c2ccccc2)O1 (centres undefined)
inactive: [3] 104 % of control | [4] 111 % of control | [5] 101 % of control | [6] 111 % of control | dose: 200.0 mg/kg/injection, schedule: Q01DX009 (ip), vehicle: saline 101 % of control | dose: 200.0 mg/kg/injection, schedule: Q04DX003 (ip), vehicle: saline 100 % of control | dose: 400.0 mg/kg/injection, schedule: Q04DX003 (ip), vehicle: saline 100 % of control

C=C(C)C1CCC(C)CC1O (centres undefined)
inactive: dose: 50.0 mg/kg/injection, schedule: Q01DX009 (ip), vehicle: saline with Tween-80 111 % of control | [7] 97 % of control | [8] 108 % of control

CC1(C)C(C#N)C(=O)N=C(N)C1C(N)=O (centres undefined)
inactive: [9] 94 % of control | [10] 94 % of control | dose: 100.0 mg/kg/injection, schedule: Q01DX009 (ip), vehicle: Klucel (hydroxypropylcellulose) (HPC) 94 % of control | [11] 92 % of control

Nc1nc2c(nnn2C2OC(COP(=O)(O)O)C(O)C2O)c(=O)[nH]1 (centres undefined)
inactive: dose: 2.5 mg/kg/injection, schedule: Q01DX Z (ip), vehicle: other 89 % of control | dose: 5.0 mg/kg/injection, schedule: Q01DX Z (ip), vehicle: other 97 % of control | dose: 10.0 mg/kg/injection, schedule: Q01DX Z (ip), vehicle: other 102 % of control | dose: 20.0 mg/kg/injection, schedule: Q01DX Z (ip), vehicle: other 118 % of control | dose: 30.0 mg/kg/injection, schedule: Q01DX Z (ip), vehicle: other 120 % of control | dose: 50.0 mg/kg/injection, schedule: Q01DX Z (ip), vehicle: other 118 % of control

CCC1COC(=O)N1 (centres undefined)
inactive: [3] 102 % of control | dose: 50.0 mg/kg/injection, schedule: Q01DX001 (ip), vehicle: saline 95 % of control | [4] 105 % of control | [12] 100 % of control

Cc1cc(=O)n(-c2ccc(N)cc2)n1C
inactive: [11] 100 % of control | dose: 200.0 mg/kg/injection, schedule: Q04DX003 (ip), vehicle: Klucel (hydroxypropylcellulose) (HPC) 100 % of control | dose: 400.0 mg/kg/injection, schedule: Q04DX003 (ip), vehicle: Klucel (hydroxypropylcellulose) (HPC) 101 % of control

Cc1cc(C)cc(OC(=S)N(C)C)c1
inactive: dose: 100.0 mg/kg/injection, schedule: Q01DX001 (ip), vehicle: Klucel (hydroxypropylcellulose) (HPC) 93 % of control | dose: 200.0 mg/kg/injection, schedule: Q01DX001 (ip), vehicle: Klucel (hydroxypropylcellulose) (HPC) 98 % of control | dose: 400.0 mg/kg/injection, schedule: Q01DX001 (ip), vehicle: Klucel (hydroxypropylcellulose) (HPC) 95 % of control

CN(C)CCOCCOC(=O)N1c2ccccc2Sc2ccccc21
inactive: dose: 6.25 mg/kg/injection, schedule: Q01DX009 (ip), vehicle: saline 106 % of control | dose: 6.25 mg/kg/injection, schedule: Q04DX003 (ip), vehicle: saline 102 % of control | dose: 12.5 mg/kg/injection, schedule: Q01DX009 (ip), vehicle: saline 95 % of control | dose: 12.5 mg/kg/injection, schedule: Q04DX003 (ip), vehicle: saline 105 % of control | [3] 97 % of control | dose: 25.0 mg/kg/injection, schedule: Q04DX003 (ip), vehicle: saline 97 % of control and 98 % of control | [4] 88 % of control | [5] 107 % of control and 109 % of control | [6] 103 % of control | dose: 100.0 mg/kg/injection, schedule: Q04DX003 (ip), vehicle: saline 102 % of control and 109 % of control

O=C(Sc1ccccc1)C1OC1c1ccccc1 (centres undefined)
inactive: dose: 100.0 mg/kg/injection, schedule: Q04DX003 (ip), vehicle: alcohol 98 % of control | dose: 200.0 mg/kg/injection, schedule: Q04DX003 (ip), vehicle: alcohol 92 % of control | dose: 400.0 mg/kg/injection, schedule: Q04DX003 (ip), vehicle: alcohol 86 % of control

C1CC2CCCC3CC(B4OCCO4)CC(C1)C23 (centres undefined) (tested in a mixture with another compound)
inactive: dose: 100.0 mg/kg/injection, schedule: Q01DX009 (ip), vehicle: other 101 % of control | [1] 97 % of control | dose: 200.0 mg/kg/injection, schedule: Q01DX009 (ip), vehicle: other 105 % of control | [2] 92 % of control | dose: 400.0 mg/kg/injection, schedule: Q01DX009 (ip), vehicle: other 108 % of control | [13] 106 % of control

c1ccc(CC2SCCCS2)cc1
inactive: [7] 103 % of control | [1] 108 % of control | [8] 88 % of control | [2] 95 % of control | dose: 400.0 mg/kg/injection, schedule: Q01DX009 (ip), vehicle: saline with Tween-80 99 % of control | [13] 95 % of control

COc1ccc(C(=O)CC2CCCC(CC(=O)c3ccc(OC)cc3)N2C)cc1 (centres undefined)
inactive: dose: 75.0 mg/kg/injection, schedule: Q01DX001 (ip), vehicle: other 98 % of control | dose: 150.0 mg/kg/injection, schedule: Q01DX001 (ip), vehicle: other 90 % of control

Cc1nn(CCO)c(C)c1N=[N+]([O-])c1c(C)nn(CCO)c1C
inactive: [9] 93 % of control and 98 % of control | dose: 30.0 mg/kg/injection, schedule: Q01DX009 (ip), vehicle: saline 95 % of control | [10] 95 % of control and 107 % of control | dose: 50.0 mg/kg/injection, schedule: Q04DX002 (ip), vehicle: Klucel (hydroxypropylcellulose) (HPC) 101 % of control | dose: 100.0 mg/kg/injection, schedule: Q04DX002 (ip), vehicle: Klucel (hydroxypropylcellulose) (HPC) 96 % of control | dose: 200.0 mg/kg/injection, schedule: Q04DX002 (ip), vehicle: Klucel (hydroxypropylcellulose) (HPC) 96 % of control

CCOC(=O)NC(/C=C/c1ccccc1)NC(=O)OCC
inactive: dose: 50.0 mg/kg/injection, schedule: Q01DX001 (ip), vehicle: carboxymethylcellulose (CMC) 92 % of control | dose: 100.0 mg/kg/injection, schedule: Q01DX001 (ip), vehicle: carboxymethylcellulose (CMC) 95 % of control | [12] 102 % of control | dose: 200.0 mg/kg/injection, schedule: Q01DX001 (ip), vehicle: saline 96 % of control | dose: 400.0 mg/kg/injection, schedule: Q01DX001 (ip), vehicle: carboxymethylcellulose (CMC) 95 % of control | dose: 400.0 mg/kg/injection, schedule: Q01DX001 (ip), vehicle: saline 100 % of control

O=[N+]([O-])c1cccc(/C=C/c2ccc(S(=O)(=O)F)cc2)c1
inactive: [1] 95 % of control | [2] 90 % of control

COc1ccc(NCc2ccccc2O)cc1
inactive: dose: 100.0 mg/kg/injection, schedule: Q01DX001 (ip), vehicle: other 95 % of control | dose: 200.0 mg/kg/injection, schedule: Q01DX001 (ip), vehicle: other 87 % of control | dose: 400.0 mg/kg/injection, schedule: Q01DX001 (ip), vehicle: other 93 % of control
